Data from PubChem BioAssay AID732 (Emory University Molecular Libraries Screening Center, 2007).
Activity calls are given as the source filed them. The rule behind the calls is not given here.

Tested on: in vivo angiogenesis, blood vessel count
Experiment: angiogenesis inhibition in living animals, in vivo study, HTS (AID 732);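 note: zebrafish embryos dosed at one day post fertilization; 0% = reference inhibitor and 100% = plate mean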
Conditions: hits give low values;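 tested at 30 µM in the well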

CN(C)CCN(Cc1cccs1)c1ccccn1
vessel count % control: 110% (inactive)

NC(CCP(=O)(O)O)C(=O)O (stereo not given)
vessel count % control: 88.9% (inactive)

C[C@H]1C2Cc3ccc(O)cc3C1(C)CCN2CC1CC1 (stereo not given in full)
vessel count % control: 70.9% (inactive)

O=C(O)/C=C/c1cnc[nH]1
vessel count % control: 108% (inactive)

CNCCC=C1c2ccccc2CCc2ccccc21
vessel count % control: 103% (inactive)

CC(=O)OC(C)C[N+](C)(C)C (stereo not given)
vessel count % control: 85.5% (inactive)

Cc1nc(-c2ccc(-c3ccc(C(=O)N4CCc5cc6c(cc54)C4(CCN(C)CC4)CO6)cc3)c(C)c2)no1
vessel count % control: 108% (inactive)

CN1CCN(C2=Nc3ccccc3Oc3ccc(Cl)cc32)CC1
vessel count % control: 123% (inactive)

O=Nc1c(-c2c(O)[nH]c3ccc(Cl)cc23)[nH]c2ccccc12
vessel count % control: 88.2% (inactive)

CCOC(=O)c1cnc2c(cnn2CC)c1NN=C(C)C
vessel count % control: 108% (inactive)

Cc1ccc(S(=O)(=O)NC(=O)NN2CCCCCC2)cc1
vessel count % control: 102% (inactive)

O=C1C(c2c(O)[nH]c3ccc([N+](=O)[O-])cc23)=Nc2ccc(Br)cc21
vessel count % control: 101% (inactive)

Nc1nc2c(nc(Br)n2C2OC3COP(=O)(O)O[C@@H]3C2O)c(=O)[nH]1 (stereo not given in full)
vessel count % control: 110% (inactive)

Clc1cc(I)cc(Cl)c1NC1=NCCN1
vessel count % control: 80.6% (inactive)

CC1(NCC(O)COc2cccc3[nH]ccc23)CCC(C(C)(C)NC(=O)CBr)CC1 (stereo not given)
vessel count % control: 124% (inactive)

Brc1ccc([C@H]2CN3CCSC3=N2)cc1
vessel count % control: 94.7% (inactive)

COc1ccc2[nH]cc(CCN)c2c1
vessel count % control: 108% (inactive)

COc1ccc([C@@H]2Sc3ccccc3N(CCN(C)C)C(=O)[C@@H]2OC(C)=O)cc1
vessel count % control: 107% (inactive)

O=C(O)C1=CCCNC1
vessel count % control: 114% (inactive)

CN1C(C)(C)CCCC1(C)C
vessel count % control: 106% (inactive)

CC(=O)OCC1=C(C(=O)[O-])N2C(=O)[C@@H](NC(=O)CCC[C@@H](N)C(=O)[O-])[C@H]2SC1.[Zn+2]
vessel count % control: 106% (inactive)

CN(C)CCCN1c2ccccc2CCc2ccccc21
vessel count % control: 104% (inactive)

CN(C)C(N)=NCCC[C@H](N)C(=O)O
vessel count % control: 93.3% (inactive)

C[C@@]1(C2CCCC2)Cc2cc(OCC(=O)O)c(Cl)c(Cl)c2C1=O
vessel count % control: 75.4% (inactive)

C1CCC(N=C(NC23CC4CC(CC(C4)C2)C3)N2CCOCC2)CC1
vessel count % control: 111% (inactive)

CC(C)NP(=O)(NC(C)C)OP(=O)(NC(C)C)NC(C)C
vessel count % control: 117% (inactive)

CC1CCN=C(N)S1 (stereo not given)
vessel count % control: 92% (inactive)

NS(=O)(=O)c1cc2c(cc1Cl)NC(C1CC3C=CC1C3)NS2(=O)=O (stereo not given)
vessel count % control: 107% (inactive)

CC(=O)O[C@]1(C(C)=O)CC[C@H]2[C@@H]3C=C(Cl)C4=CC(=O)[C@@H]5C[C@@H]5[C@]4(C)[C@H]3CC[C@@]21C
vessel count % control: 71.2% (inactive)

CC(N)[C@H](O)c1ccc(O)c(O)c1 (stereo not given in full)
vessel count % control: 106% (inactive)

C[C@]12CCC(=O)C=C1CC[C@@H]1[C@@H]2[C@@H](O)C[C@@]2(C)[C@H]1CC[C@]2(O)C(=O)CO
vessel count % control: 102% (inactive)

N[C@H](CCC(=O)NCS(=O)(=O)O)C(=O)O
vessel count % control: 102% (inactive)

COc1nc(C)nc(Cl)c1NC1=NCCN1
vessel count % control: 81.3% (inactive)

NC(N)=[N+]1CCc2ccccc2C1
vessel count % control: 113% (inactive)

COc1ccc2c(c1)c(CC(=O)O)c(C)n2C(=O)c1ccccc1
vessel count % control: 116% (inactive)

N#CC(Cc1ccc(O)c(O)c1)C(=O)N1CCc2ccccc21 (stereo not given)
vessel count % control: 132% (inactive)

COCC(=O)O[C@]1(CCN(C)CCCc2nc3ccccc3[nH]2)CCc2cc(F)ccc2[C@@H]1C(C)C
vessel count % control: 90.9% (inactive)

CN(C)C(=O)/N=N/C(=O)N(C)C
vessel count % control: 110% (inactive)

CCCCCCCCCCCCCCCC(=O)OC(CC(=O)O)C[N+](C)(C)C (stereo not given)
vessel count % control: 92% (inactive)

C[C@]12CCC(=O)C=C1CC[C@@H]1[C@@H]2CC[C@]2(C)C(=O)CC[C@@H]12
vessel count % control: 102% (inactive)

Cn1cc(C(F)(F)F)nc1-c1ccc(OCC(O)CNCCOc2ccc(O)c(C(N)=O)c2)cc1 (stereo not given)
vessel count % control: 82.4% (inactive)

CCN(CC)CCCCCCCCOC(=O)c1cc(OC)c(OC)c(OC)c1
vessel count % control: 91.4% (inactive)

COCCCC/C(=N\OCCN)c1ccc(C(F)(F)F)cc1
vessel count % control: 145% (inactive)

CN(C)CCOC(C)(c1ccccc1)c1ccccn1 (stereo not given)
vessel count % control: 95.7% (inactive)

Cn1c(=O)c2c(nc(/C=C/c3cccc(Cl)c3)n2C)n(C)c1=O
vessel count % control: 72.9% (inactive)

S=C(NC1CCCCC1)N1CCC(c2cnc[nH]2)CC1
vessel count % control: 129% (inactive)

N=c1nc(N2CCCCC2)cc(N)n1O
vessel count % control: 114% (inactive)

CNC(=O)Oc1ccc2c(c1)[C@]1(C)CCN(C)[C@@H]1N2C
vessel count % control: 120% (inactive)

C[N+](C)(C)CCCCCCCCCC[N+](C)(C)C
vessel count % control: 100% (inactive)

N[C@H](C(=O)O)c1cc(O)cc(O)c1
vessel count % control: 108% (inactive)

C=CCc1ccccc1OCC(O)CNC(C)C (stereo not given)
vessel count % control: 105% (inactive)

CCc1cccc(N(C)C(N)=Nc2cccc3ccccc23)c1
vessel count % control: 105% (inactive)

CCCc1c(OCCCOc2ccc(OCC(=O)O)cc2)ccc(C(C)=O)c1O
vessel count % control: 92.9% (inactive)

NCC(CP(=O)(O)O)c1ccc(Cl)cc1 (stereo not given)
vessel count % control: 116% (inactive)

Cc1cc(NC(=O)Nc2ccc3c(ccn3C)c2)sn1
vessel count % control: 112% (inactive)

CN1CCc2cc(O)c(O)cc2C(c2ccccc2)C1 (stereo not given)
vessel count % control: 107% (inactive)

O=C(NCC1CCCCN1)c1cc(OCC(F)(F)F)ccc1OCC(F)(F)F (stereo not given)
vessel count % control: 127% (inactive)

COc1ccc2[nH]cc(CCN(C)C)c2c1
vessel count % control: 83.1% (inactive)

CN1CCc2cc(NC(=O)Nc3cccnc3)ccc21
vessel count % control: 86.6% (inactive)

O=S(=O)(c1cccc2c(Cl)cccc12)N1CCCNCC1
vessel count % control: 109% (inactive)

O=C1OC(=O)C2C3CCC(O3)C12 (stereo not given)
vessel count % control: 111% (inactive)

Cc1cccc(C)c1OCC(N)C(C)C (stereo not given)
vessel count % control: 112% (inactive)

CN1CCN(C2Cc3ccccc3Sc3ccc(Cl)cc32)CC1 (stereo not given)
vessel count % control: 120% (inactive)

Clc1cccc(Cl)c1NC1=NCCN1
vessel count % control: 121% (inactive)

CCC1(O)CC2CN(CCc3c([nH]c4ccccc34)[C@@](C(=O)OC)(c3cc4c(cc3OC)N(C=O)C3[C@]45CCN4CC=C[C@@](CC)([C@@H](OC(C)=O)[C@]3(O)C(=O)OC)[C@H]45)C2)C1 (stereo not given in full)
vessel count % control: 109% (inactive)

O=C(O)[C@@H]1CCN1
vessel count % control: 84.3% (inactive)

CCCN(CCC)CCc1ccc(O)c(O)c1
vessel count % control: 86.9% (inactive)

COc1cc(C[C@@H](C)N)c(OC)cc1I
vessel count % control: 93.2% (inactive)

CC(C)COC(=O)OCN1C(=O)CN(CCN2CC(=O)N(COC(=O)OCC(C)C)C(=O)C2)CC1=O
vessel count % control: 104% (inactive)

CN1CCN(CC/C=C2/c3ccccc3Sc3ccc(S(=O)(=O)N(C)C)cc32)CC1
vessel count % control: 98.3% (inactive)

C[C@]12CC[C@H](OS(=O)(=O)O)CC1=CC[C@@H]1[C@@H]2CC[C@]2(C)C(=O)CC[C@@H]12
vessel count % control: 90.1% (inactive)

COC(=O)C1=C(C)NC(C)=C(C(=O)OC)C1c1ccccc1[N+](=O)[O-]
vessel count % control: 112% (inactive)

NNC(=O)c1ccc(O)cc1
vessel count % control: 97.5% (inactive)

COc1ccc(CCN(C)CCc2ccc(OC)c(OC)c2)cc1OC
vessel count % control: 101% (inactive)

CCCCOC(=O)NS(=O)(=O)c1sc(CC(C)C)cc1-c1ccc(Cn2c(CC)nc3c(C)cc(C)nc32)cc1
vessel count % control: 89% (inactive)

CCC1(c2ccccc2)C(=O)NCNC1=O
vessel count % control: 91.4% (inactive)

CSc1nc(N)c2ncn([C@@H]3O[C@H](COP(=O)(O)OP(=O)(O)O)[C@H](O)C3O)c2n1 (stereo not given in full)
vessel count % control: 83.5% (inactive)

CN(C)CCCN1c2ccccc2CCc2ccc(Cl)cc21
vessel count % control: 85.2% (inactive)

CC(C)NCC(O)c1ccc(O)c(O)c1 (stereo not given)
vessel count % control: 97.1% (inactive)

Oc1[nH]c2ccccc2c1C1=Nc2ccc(Br)cc2/C1=N\OCCBr
vessel count % control: 79.9% (inactive)

NC1CC1c1ccccc1 (stereo not given)
vessel count % control: 94.1% (inactive)

NC(Cc1ccc(Cl)cc1)C(=O)O (stereo not given)
vessel count % control: 103% (inactive)

CC(N)(Cc1ccc(O)cc1)C(=O)O (stereo not given)
vessel count % control: 105% (inactive)

Cc1cc(N)c2ccccc2[n+]1CCCCCCCCCCCCCC[n+]1c(C)cc(N)c2ccccc21
vessel count % control: 79.9% (inactive)

CC(=O)NCCc1c[nH]c2ccc(O)cc12
vessel count % control: 101% (inactive)

Cn1c(=O)c2[nH]c(C3CCCC3)nc2n(C)c1=O
vessel count % control: 104% (inactive)

Cc1nc2c(OCc3ccccc3)cccn2c1CC#N
vessel count % control: 120% (inactive)

NCCCP(=O)(O)O
vessel count % control: 91.6% (inactive)

c1ccc([C@H]2CN3CCSC3=N2)cc1
vessel count % control: 98.4% (inactive)

OC[C@H]1O[C@@H](n2cnc3c(NCCc4ccccc4)ncnc32)C(O)[C@H]1O (stereo not given in full)
vessel count % control: 79.4% (inactive)

C[C@H](NC(=O)/C(C#N)=C/c1ccc(O)c(O)c1)c1ccccc1
vessel count % control: 102% (inactive)

NC(=O)NO
vessel count % control: 97.8% (inactive)

CCN(CC)CC#CCOC(=O)C(O)(c1ccccc1)C1CCCCC1 (stereo not given)
vessel count % control: 125% (inactive)

Oc1ccc(C2CNCc3sccc32)cc1O (stereo not given)
vessel count % control: 94.7% (inactive)

CCCCCCCCCC[Si](C)(C)CCC(=O)NC(Cc1ccc(C)cc1)c1ccccc1 (stereo not given)
vessel count % control: 109% (inactive)

CN(C)C(=O)Oc1ccc[n+](C)c1
vessel count % control: 110% (inactive)

CC(=O)N[C@@H](Cc1c[nH]c2ccccc12)C(=O)OCc1cc(C(F)(F)F)cc(C(F)(F)F)c1
vessel count % control: 70.4% (inactive)

C[N+]1(C)C2CCC1CC(OC(=O)c1c[nH]c3ccccc13)C2 (stereo not given)
vessel count % control: 99.8% (inactive)

O=C(O)CNC(=O)C(CS)Cc1ccccc1 (stereo not given)
vessel count % control: 117% (inactive)

CC(Cc1ccc(OCC(=O)O)cc1)NCC(O)c1cccc(Cl)c1 (stereo not given)
vessel count % control: 97.7% (inactive)
